Results reported in article PMC3353181, “A gallotannin-rich fraction from Caesalpinia spinosa (Molina) Kuntze displays cytotoxic activity and raises sensitivity to doxorubicin in a leukemia cell line” (BMC Complementary and Alternative Medicine, 2012).

Tests used:
[1] = tested on: melanoma cells (RPMI-7951); set-up: method as in PMID 1431932; conditions: cited from earlier work
K562 = experiment: P2Et adjuvant activity (MTT), K562; format: cell-based, human; conditions: sub-optimal tested concentrations
Experimental: P2Et fraction adjuvant activity was assessed using K562 and MCF7 cells in combination with the well-known cancer treatment drugs doxorubicin, vincristine, taxol and camptothecin. Cell viability was evaluated by means of the MTT assay. […] Results are expressed as cell viability percentage relative to the control (100 × Treatment OD/Negative control OD).
K562 (A) or MCF7 (B) cells were treated with the P2Et fraction or ethanol (negative control) for 6 h, washed and treated with doxorubicin (Dx), vincristine (Vt), camptothecin (Ct) or taxol (Tx) at the concentrations shown over a 48 h period. Cell cytotoxicity was estimated using the MTT assay. Data represent three independent experiments. *** (p < 0.001).

PBMC = experiment: MTT cytotoxicity assay, PBMC; format: cell-based; conditions: Homo sapiens, normal PBMC, concentration ± SE
Text: (§1) The cell lines used as cancer cells were K562, a human erythroleukemia and MCF7, a human breast adenocarcinoma, from the American Type Culture Collection (ATCC); and the cell lines used as normal cells were human peripheral blood mononuclear cells (PBMC) and human fibroblasts obtained from normal healthy donors after informed consent was given. This project was approved by the ethics committee (founded in 2002) of the Science Faculty at a meeting on August 21, 2007. The culture conditions under which the cell lines were maintained have already been reported.
(§2) The cytotoxic effects of the fractions and conventional chemotherapeutic drugs (doxorubicin, etoposide, vincristine and taxol) were evaluated using normal and tumor cells by means of trypan blue and the methylthiazol tetrazolium (MTT) assay, as previously reported. The P2Et fraction was dissolve in ethanol and the corresponding vehicle was used as a negative control.
(§3) Figure 2 Induction of morphological changes and cytotoxicity in K562 cells by C. spinosa fractions without affecting normal human cells. […] Morphological changes were evaluated by direct observation using a light microscope at a magnification of 40X (B: 1. Ethanol; 2. S2Et; 3. P2Et; and 4. Etoposide). […]
(§4) Additionally, the cytotoxic activity of C. spinosa fractions was evaluated using gingival fibroblasts from the oral mucosa or normal human mononuclear cells. […]

gingival fibroblasts = experiment: MTT cytotoxicity assay, gingival fibroblasts; format: cell-based; conditions: Homo sapiens, Fibroblast, normal gingival fibroblasts, concentration ± SE
Text: as §1, §2, §3, §4

HL-60 cell line = tested on: HL-60 cell line; set-up: method as in PMID 10554885; conditions: cited from earlier work

**Q.** For `O=C(O[C@H]1[C@H](O)C[C@](O)(C(=O)O)C[C@H]1OC(=O)c1cc(O)c(O)c(O)c1)c1cc(O)c(O)c(O)c1` [4,5-di-O-galloylquinic acid], which “Cytotoxicity against melanoma cells” value [1] is on record?
**A.** moderate cytotoxicity

**Q.** Which “Effect on cell viability, used separately” value (K562) does the source give for `COc1cccc2c1C(=O)c1c(O)c3c(c(O)c1C2=O)C[C@@](O)(C(=O)CO)C[C@@H]3O[C@H]1C[C@H](N)[C@H](O)[C@H](C)O1` [Doxorubicin] here?
**A.** slight effect

**Q.** Which IC50 (PBMC) does the source give for `COc1cc([C@@H]2c3cc4c(cc3[C@@H](O[C@@H]3O[C@@H]5CO[C@@H](C)O[C@H]5[C@H](O)[C@H]3O)[C@H]3COC(=O)[C@H]23)OCO4)cc(OC)c1O` [Etoposide] here?
**A.** > 200 µg/mL

**Q.** And the IC50 (gingival fibroblasts)?
**A.** > 200 µg/mL

**Q.** With `O=C(OC[C@H]1O[C@@H](OC(=O)c2cc(O)c(O)c(O)c2)[C@H](OC(=O)c2cc(O)c(O)c(O)c2)[C@@H](OC(=O)c2cc(O)c(O)c(O)c2)[C@@H]1OC(=O)c1cc(O)c(O)c(O)c1)c1cc(O)c(O)c(O)c1` [PGG, 1,2,3,4,6-penta-O-galloyl-β-D-glucose] as the compound, how does the Induction of apoptosis (HL-60 cell line) read?
**A.** able to induce caspase-mediated apoptosis
